# Assay results taken from ChEMBL document CHEMBL4431375, “Stereochemistry Balances Cell Permeability and Solubility in the Naturally Derived Phepropeptin Cyclic Peptides” (ACS Med Chem Lett, 2016).
# Experiments:
# [1] = Thermodynamic aqueous solubility of the compound at 2 mM and pH 7.4 measured after 20 hrs by HPLC analysis; assay type: physicochemical; settings: aqueous medium, read-out: Therm_solubility
# [2] = Metabolic stability in human plasma assessed as compound degradation at 2 uM measured after 30 mins by LC-ESI/MS analysis; assay type: ADME, cell-free; settings: 0.5 h
# [3] = Apparent passive permeability in MDCK cells expressing MDR1 (unknown origin) at 5 uM measured after 60 mins by LC-MS/MS analysis; assay type: ADME, cell-based, Canis lupus familiaris; settings: dog
# [4] = Octanol-water partition coefficient, log D of the compound at pH 7.4 by shake flask method; assay type: physicochemical
Structure (SMILES),"solubility thermodynamic at 20 h, 2000 µM [1]",Stability [2],"Papp at 1 h, 5 µM [3]",logD [4]
CC[C@H](C)[C@@H]1NC(=O)[C@@H](CC(C)C)NC(=O)[C@H](Cc2ccccc2)NC(=O)[C@@H]2CCCN2C(=O)[C@@H](Cc2ccccc2)NC(=O)[C@H](CC(C)C)NC1=O,10 µg/mL,Stable,40 ×10⁻⁶ cm/s,–
CC(C)C[C@@H]1NC(=O)[C@H](C(C)C)NC(=O)[C@@H](CC(C)C)NC(=O)[C@H](Cc2ccccc2)NC(=O)[C@@H]2CCCN2C(=O)[C@@H](Cc2ccccc2)NC1=O,50 µg/mL,Stable,39 ×10⁻⁶ cm/s,2.33
CC(C)C[C@@H]1NC(=O)[C@H](C(C)C)NC(=O)[C@@H](CC(C)C)NC(=O)[C@H](CC(C)C)NC(=O)[C@H]2CCCN2C(=O)[C@@H](Cc2ccccc2)NC1=O,150 µg/mL,Stable,8 ×10⁻⁶ cm/s,2.37
CC[C@H](C)[C@@H]1NC(=O)[C@@H](CC(C)C)NC(=O)[C@H](Cc2ccccc2)NC(=O)[C@H]2CCCN2C(=O)[C@@H](Cc2ccccc2)NC(=O)[C@H](CC(C)C)NC1=O,30 µg/mL,Stable,18 ×10⁻⁶ cm/s,–
CC(C)C[C@@H]1NC(=O)[C@H](C(C)C)NC(=O)[C@@H](CC(C)C)NC(=O)[C@H](Cc2ccccc2)NC(=O)[C@H]2CCCN2C(=O)[C@@H](Cc2ccccc2)NC1=O,70 µg/mL,Stable,11 ×10⁻⁶ cm/s,2.41

# Results, then the compound that gave them:
"solubility thermodynamic at 20 h, 2000 µM [1]",Stability [2],"Papp at 1 h, 5 µM [3]",logD [4],Structure (SMILES)
60 µg/mL,Stable,40 ×10⁻⁶ cm/s,2.63,CC[C@H](C)[C@@H]1NC(=O)[C@@H](CC(C)C)NC(=O)[C@H](CC(C)C)NC(=O)[C@@H]2CCCN2C(=O)[C@@H](Cc2ccccc2)NC(=O)[C@H](CC(C)C)NC1=O
170 µg/mL,Stable,33 ×10⁻⁶ cm/s,2.08,CC(C)C[C@@H]1NC(=O)[C@H](C(C)C)NC(=O)[C@@H](CC(C)C)NC(=O)[C@H](CC(C)C)NC(=O)[C@@H]2CCCN2C(=O)[C@@H](Cc2ccccc2)NC1=O
70 µg/mL,Stable,15 ×10⁻⁶ cm/s,2.39,CC[C@H](C)[C@@H]1NC(=O)[C@@H](CC(C)C)NC(=O)[C@H](CC(C)C)NC(=O)[C@H]2CCCN2C(=O)[C@@H](Cc2ccccc2)NC(=O)[C@H](CC(C)C)NC1=O
